The record followed here is US11492629B2, “Extra-chromosomal circular DNA-mediated engineering of plant traits” (Kansas State University Research Foundation, priority 2019, dated 2022).

What all share (type): in vivo, Amaranthus palmeri
In one assay the test system is A. palmeri plants. Briefly: Whole-plant glyphosate treatment of field-collected A. palmeri, injury versus untreated check. Particulars: 868 g ae ha plus 2% (w/v) ammonium sulfate. From the text:
A. palmeri plants used in this study were generated from seeds collected from a field near Manhattan, Kans., USA, where there was incident of lack of control of this population with glyphosate application in the previous season. This field was exposed to frequent applications of glyphosate in Roundup Ready soybean, grown in rotation. Seed of A. palmeri was randomly sampled from ten plants and pooled. Sixty seedlings from the above sample along with a known glyphosate-susceptible (GS) A. palmeri were germinated and seedlings were transplanted individually into Miracle-Gro potting mix (Marysville, Ohio) in 10 cm×10 cm×10 cm plastic pots and watered from top in a greenhouse (25/20° C. temperature; 15/9 h light day/night, supplemented with […] illumination using sodium vapor lamps). At least 20 plants (10 to 12 cm tall) were treated separately with field use rate [868 g ae ha^−1 plus 2% (w/v) ammonium sulfate] or twice the field use rate of glyphosate. […] Plant survival was assessed four weeks after treatment.
In response to glyphosate treatment [868 g ae ha′ plus 2% (w/v) ammonium sulfate], plants showing injury levels of high (>80%) and low (<30%) in comparison to untreated check were grouped as GS and glyphosate-resistant (GR), respectively. […] DNA was quantified on Nanodrop Spectrophotometer.

In assay [1] the test system is progeny of GR A. palmeri plants (>80-100 EPSPS copies). Briefly: Response to 1x glyphosate of progeny from randomly mated glyphosate-resistant (GR) plants grown without selection. The source says:
(§1) To investigate the evolution of resistance to glyphosate in response to glyphosate selection pressure, we exposed GS plants (<20 EPSPS copies) to glyphosate for one generation to determine the EPSPS copy number and eccDNA variation in each generation and assess the possibility of evolution of resistance to continuous exposure to glyphosate via eccDNA containing EPSPS gene amplification. This process can be repeated for 6 to 8 generations. We also initiated experiments to examine the reversal of glyphosate resistance to susceptibility in the absence of glyphosate selection pressure by growing GR plants (>80-100 EPSPS copies) in the absence of glyphosate selection and generating progenies by random mating. This process can be repeated for 6 to 8 generations. A portion of progenies will be screened for susceptibility or resistance to glyphosate and determine the EPSPS gene copies and presence or absence of eccDNA in each generation.
The progeny generated from random mating of GR plants (>80-100 EPSPS copies) were used in this study. The seed collected from two GR plants (allowed to mate randomly) were planted and seedlings were generated. Approximately 100 plants from each GR plant were grown in the greenhouse without exposure to glyphosate for seed production. Additionally, approximately 127 seedlings from each of the above GR plant were also grown separately and treated with 1× dose of glyphosate to assess their response. Leaf tissue from 40 plants each was also collected for only EPSPS copy number analysis.

Assay [2] has as its system GS A. palmeri plants (<20 EPSPS copies). The assay can be described thus: Glyphosate selection of glyphosate-susceptible (GS) seedlings in greenhouse, plant survival.
Description: as §1
Approximately 1,009 seedlings were grown in greenhouse and treated with 0.25, 0.5 and 1× glyphosate (1×: 840 g ae/ha). The survivors have been selected for seed production of G-2 seed. Leaf tissue from 40 plants were collected for copy number analysis before the treatment with glyphosate. Additionally, the leaf samples were also collected from plants (at least 5) that survived glyphosate application.

[3] abbreviates: seedlings from plant GR1, 1x glyphosate, 127 plants treated.
Where [4] appears, read: seedlings from plant GR2, 1x glyphosate, 122 plants treated.
The mark [5] stands for this setting: glyphosate rate 0.25X (1X: 840 g ae/ha), 160 treated plants.
Where [6] appears, read: glyphosate rate 0.5X (1X: 840 g ae/ha), 430 treated plants.
Setting [7] is: glyphosate rate 1X (1X: 840 g ae/ha), 419 treated plants.

SMILES strings stand for the structures.

As for `O=C(O)CNCP(=O)(O)O` [Glyphosate, N-(phosphonomethyl) glycine], the “injury level in comparison to untreated check” value is less than 30% with A. palmeri plants (plants grouped as GR (low injury)) and more than 80% in the assay on A. palmeri plants (plants grouped as GS (high injury)). Besides, the “% survival” value was found to be 68% in assay [1] (seedlings from plant GR1, 1x glyphosate); 72% in assay [1] (seedlings from plant GR2, 1x glyphosate); 16% in assay [2] (glyphosate rate 0.25X (1X: 840 g ae/ha)); 4% in assay [2] (glyphosate rate 0.5X (1X: 840 g ae/ha)); 3% in assay [2] (glyphosate rate 1X (1X: 840 g ae/ha)). Further, the Alive in assay [1] (setting [3]) is 86; in assay [1] (setting [4]), 88; in assay [2] (setting [5]), 26; in assay [2] (setting [6]), 18; in assay [2] (setting [7]), 13. In addition, the Dead in assay [1] (setting [3]) is reported as 41; in assay [1] (setting [4]) it was 34; in assay [2] (setting [5]) it was 134; in assay [2] (setting [6]), 412; in assay [2] (setting [7]) it was 406.
